Results from EP4620949A1, “ACKR3 MODULATORS FOR CARDIOVASCULAR OR ANTIPLATELET THERAPY” (Eberhard Karls Universität Tübingen (Medizinische Fakultät), priority 2024, dated 2025).
Where “and” joins values, the source holds several entries; their conditions need not be identical. Equal entries are not always repeated.

Key:
platelets [1] = assay: Light transmission platelet aggregation experiments; type: cell-based; conditions: preincubation with 100 µM ACKR3 agonist, activation with 2.5 µM ADP; compared to the control
Experimental: Platelet aggregation studies. To further evaluate the compounds inhibitory potential of platelet aggregation, aggregation experiments were conducted.
Aggregation experiments. For the light transmission aggregation experiments, citrate anticoagulated blood from healthy donors was used. To obtain platelet-rich plasma, whole blood was centrifuged at 210 × g for 20 min at room temperature. 1 × 10^8 platelets were preincubated with 100 µM ACKR3 agonist for 15 min at 37°C. Subsequently, platelets were activated with 2.5 µM ADP and aggregation was analyzed for 5 min at 1,000 rpm and 37°C using a light transmission aggregometer (Aggregometer 490-X; Chrono-Log Corp., Havertown, Pennsylvania, United States). Maximum platelet aggregation and the area under the curve were quantified using Aggrolink8 software (Chrono-Log Corp., Havertown, Pennsylvania, United States).

human ACKR3 = molecular target: T1, human ACKR3 (Homo sapiens, UniProt P25106); assay: ACKR3 β-Arrestin recruitment assay (NanoLuc complementation, NanoBiT) in HEK293T cells; type: cell-based; conditions: for EC50: ACKR3, HEK293T cells, average value of three independent experiments
T1 construct: expressed in transfected cells; host or cells: HEK293T
T1 sequence (P25106 whole entry): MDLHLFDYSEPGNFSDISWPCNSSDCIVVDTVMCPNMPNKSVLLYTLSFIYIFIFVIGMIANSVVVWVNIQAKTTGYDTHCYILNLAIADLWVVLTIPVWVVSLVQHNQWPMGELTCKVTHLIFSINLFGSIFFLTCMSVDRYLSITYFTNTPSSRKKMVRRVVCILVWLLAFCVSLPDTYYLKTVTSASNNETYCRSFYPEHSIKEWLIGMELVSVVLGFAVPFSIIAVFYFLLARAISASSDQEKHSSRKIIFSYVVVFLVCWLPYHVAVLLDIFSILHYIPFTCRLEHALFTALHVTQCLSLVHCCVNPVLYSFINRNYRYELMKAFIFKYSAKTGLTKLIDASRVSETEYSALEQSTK
T1 sequence (P49407 whole entry partner): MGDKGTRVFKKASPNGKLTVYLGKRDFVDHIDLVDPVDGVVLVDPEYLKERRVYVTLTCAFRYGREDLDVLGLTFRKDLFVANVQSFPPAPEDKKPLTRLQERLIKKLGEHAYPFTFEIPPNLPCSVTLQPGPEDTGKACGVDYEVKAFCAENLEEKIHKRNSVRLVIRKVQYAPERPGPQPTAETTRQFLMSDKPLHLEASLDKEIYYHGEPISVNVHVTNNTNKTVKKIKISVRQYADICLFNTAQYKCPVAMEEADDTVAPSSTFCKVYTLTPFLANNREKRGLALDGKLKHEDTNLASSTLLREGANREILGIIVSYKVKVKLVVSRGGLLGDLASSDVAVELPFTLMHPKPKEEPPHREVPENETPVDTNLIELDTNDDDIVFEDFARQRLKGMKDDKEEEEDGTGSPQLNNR
Experimental: ACKR3 β-Arrestin Recruitment Assay. […] T.; Encell, L. P.; Wood, K. V. Nanoluc complementation reporter optimized for accurate measurement of protein interactions in cells. […] B.; Reynders, N.; Vanderplasschen, A.; Ollert, M.; Bouvier, M.; Szpakowska, M.; Chevigné, A. Proadrenomedullin n-terminal 20 peptides (pamps) are agonists of the chemokine scavenger receptor ACKR3/CXCR7. […] The prepared cells were then treated with compounds at concentrations ranging from 0.3 nM to 100 µM. Induction of β-Arrestin recruitment to receptors was evaluated by measuring bioluminescence with a Mithras LB940 luminometer (Berthold Technologies).
All curves were fitted to data points generated from the mean of at least three independent experiments. Results with values of p < 0.05 were considered statistically significant.

platelets [2] = assay: Flow cytometry assay of platelet degranulation (P-Selectin surface expression in PRP); type: cell-based, human; conditions: PRP pre-incubated with compound (100 µM), then CRP-XL (1 µg/mL); % ±SEM normalized to CRP-XL-treated vehicle PRP
Experimental: Platelet Degranulation Studies of Derivatives. Concurrent with the β-Arrestin recruitment potency optimization, the compounds were also tested and developed according to their functional activity. To determine the ability of a compound to modulate platelets, P-Selectin surface expression was measured. P-Selectin is a surface protein involved in cell adhesion mechanisms and can be found on activated platelets. After induction of platelet aggregation in platelet-rich plasma (PRP), treatment with the respective compound should therefore lead to a significant reduction in P-Selectin expression. […]. […]. Similarly, platelet degranulation potency was highly sensitive toward "linker"-changes (Structure C, Table 1). A distinct trend could not be registered. […]. Flow Cytometry Assay. The inhibition of platelet degranulation was determined via flow cytometry experiments. Platelets were treated with collagen-related peptide (CRP-XL, CambCol Laboratories, Cambridge, UK) and the platelets' activation state was determined (Geue, S.; Aurbach, K.; Manke, M.-C.; Manukjan, G.; Münzer, P.; Stegner, D.; Brähler, C.; Walker-Allgaier, B.; Märklin, M.; Borst, C. E.; Quintanilla-Fend, L.; Rath, D.; Geisler, T.; Salih, H. R.; Seizer, P.; Lang, F.; Nieswandt, B.; Gawaz, M.; Schulze, H.; Pleines, I.; Borst, O. Pivotal role of pdk1 in megakaryocyte cytoskeletal dynamics and polarization during platelet biogenesis. Blood 2019, 134, 1847-1858; and Malehmir, M.; Pfister, D.; Gallage, S.; Szydlowska, M.; Inverso, D.; Kotsiliti, E.; Leone, V.; Peiseler, M.; Surewaard, B. G. J.; Rath, D.; Ali, A.; Wolf, M. J.; Drescher, H.; Healy, M. E.; Dauch, D.; Kroy, D.; Krenkel, O.; Kohlhepp, M.; Engleitner, T.; Olkus, A.; Sijmonsma, T.; Volz, J.; Deppermann, C.; Stegner, D.; Helbling, P.; Nombela-Arrieta, C.; Rafiei, A.; Hinterleitner, M.; Rail, M.; Baku, F.; Borst, O.; Wilson, C. L.; Leslie, J.; O'Connor, T.; Wes-ton, C. J.; Chauhan, A.; Adams, D. H.; Sheriff, L.; Teijeiro, A.; Prinz, M.; Bogeska, R.; An-stee, N.; Bongers, M. N.; Notohamiprodjo, M.; Geisler, T.; Withers, D. J.; Ware, J.; Mann, D. A.; Augustin, H. G.; Vegiopoulos, A.; Milsom, M. D.; Rose, A. J.; Lalor, P. F.; Llovet, J. M.; Pinyol, R.; Tacke, F.; Rad, R.; Matter, M.; Djouder, N.; Kubes, P.; Knolle, P. A.; Unger, K.; Zender, L.; Nieswandt, B.; Gawaz, M.; Weber, A.; Heikenwalder, M. Platelet gpibα is a mediator and potential interventional target for nash and subsequent liver cancer. Nat. Med. 2019, 25, 641-655). Briefly, PRP was isolated from peripheral human blood collected in citrate-phosphate-dextrose solution with adenine (CPDA) and diluted with phosphate-buffered saline (PBS) (Sigma Aldrich Co., Ltd., St. Luis, Missouri, USA) supplemented with CaCl2 and MgCl2. PRP (106 platelets /sample) was preincubated with the respective compound (100 µM) for 15 min. Samples were treated with 1 µg/ml CRP-XL (CambCol Laboratories, Cambridge, UK) for 30 min at room temperature in the presence of the respective fluorochrome-conjugated antibody against P-Selectin (CD62P-FITC; Beckman Coulter, Brea, CA, USA). Subsequently, samples were fixed in 0.5% paraformaldehyde and analyzed on a FACS-Calibur flow cytometer (FACS-Caliber flow cytometer, Becton-Dickinson, East Rutherford, NJ, USA). Mean fluorescence intensity (MFI) was used as a quantitative measurement of platelet surface expression.

Kinetic solubility assay = type: physicochemical; conditions: for solubility: PBS buffer with 1% DMSO, 4 °C, aqueous buffer, kinetic from dmso stock, 1% DMSO, 99% PBS buffer (pH 7.4); for Solubility (in words): mixture 1 vol.% DMSO and 99 vol.% PBS buffer
Experimental: Solubility Assay. A 100 mL flask with phosphate-buffered saline was prepared from NaCl, KCI, Na2HPO4, KH2PO4, and distilled water. The buffer was adjusted to pH 7.4 with HCl. Afterwards, 10mM stock solutions of compounds in DMSO were prepared. 10 µL compound stock solution was added to 990 µL PBS in Eppendorf tubes. As a reference, 10 µL compound stock solution was added to 990 µL HPLC-grade MeOH in Eppendorf tubes. All tubes were centrifuged (16000 relative centrifugal force, 4 °C, 20 min). Subsequently, 600 µL supernatant was extracted carefully and filled into HPLC vials. […] Compounds solubility was calculated by AUC of compound in PBS divided by AUC of reference solution multiplied by concentration of the compound in solution.

HEK293 cells = assay: RealTime-Glo MT cell viability assay; type: cell-based; conditions: concentrations of 1 µM and below, up to 72 h
Experimental: Cell viability studies. […].
Cell Viability Assay. RealTime-Glo™ MT Cell Viability Assay (Promega Corporation, Madison, WI, USA) was performed using THP1 cells and HEK293 cells as indicated in the manufacturer's manual to measure a compound's cytotoxicity on cells. In brief, in a white solid-bottom 96-well plate cells (5x10^3/well) were seeded and incubated with the respective compounds diluted in DMEM (Gibco, Carlsbad, CA, USA). After cell seeding viability reagent is added. Subsequently, cells were incubated with the compound and viability reagent containing medium at 37 °C, 5% CO2 for 72 h. The luminescence signal was determined after 1, 24, 48, and 72 hours on a GloMax®-Multi Detection System plate reader (Promega Corporation, Madison, Wl, USA).

[3] = Metabolic stability assay in mouse liver microsomes; type: in vitro ADME; conditions: after 60 min
Experimental: (§1) Metabolic Stability Assay. Pooled liver microsomes from mice (male) and humans (male) were purchased from Sekisui XenoTech, LLC, Kansas City, KS, USA. Metabolic stability assays were performed in the presence of an NADPH-regenerating system consisting of 5 mM glucose-6-phosphate, 5 U/mL glucose-6-phosphate dehydrogenase, and 1 mM NADP^+. Liver microsomes (20 mg/mL), NADPH-regenerating system, and 4 mM MgCl2·6 H2O in 0.1 M TRIS-HCl-buffer (pH 7.4) were preincubated for 5 min at 37 °C and 750 rpm on a shaker. The reaction was started by adding the preheated compound at 10 mM resulting in a final concentration of 0.1 mM. […] The samples were vortexed for 30 s and centrifuged (21910 relative centrifugal force, 4 °C, 20 min). The supernatant was used directly for LC-MS analysis.
(§2) All compound incubations were conducted at least in triplicates. Additionally, a negative control containing BSA (20 mg/mL) instead of liver microsomes and a positive control using Verapamil instead of the compound was performed. A limit of 1% organic solvent during incubation was not exceeded. […]

[4] = Metabolic stability assay in human liver microsomes; type: in vitro ADME
Experimental: as §1, §2

[5] = average of three independent experiments ± SEM

| SMILES | platelet aggregation (in words) (platelets [1]) | EC50 (human ACKR3) | Efficacy (Emax) vs CXCL12 (human ACKR3; efficacy of CXCL12 at 300 nM set as 100%, average of three independent experiments) | P-Selectin expression reduction (platelets [2]) | solubility (Kinetic solubility assay) | solubility (Kinetic solubility assay; [5]) | cell toxicity / tolerability (in words) (HEK293 cells) | compound remained [3] | compound remained ([4]; 60 min) | metabolic stability (in words) ([4]; over the course of 60 min) | Solubility (in words) (Kinetic solubility assay) |
| --- | --- | --- | --- | --- | --- | --- | --- | --- | --- | --- | --- |
| COc1cc(C(=O)N(CCC2CCCN2C)C/C(C)=C/c2ccccc2F)cc(OC)c1OC (stereo not drawn) [VUF11207, reference compound] | reduction of platelet aggregation | 43.6 nM | 95% | 65% and 65±6% | – | – | – | – | – | – | – |
| CCCCN(CCCNC(=O)c1ccc(-c2ccccc2)s1)Cc1ccccc1 [Compound 27, N-(3-(benzyl(butyl)amino)propyl)-5-phenylthiophene-2-carboxamide] | – | – | – | 77% and 77±6% | 10 µg/mL | 28 ± 4 µM | tolerated well | around 24% | Around 69% | stable | – |
| O=C(NCCCN(CCCc1ccccc1)Cc1ccccc1)c1ccc(-c2ccccc2)s1 [Compound 30, N-(3-(benzyl(3-phenylpropyl)amino)propyl)-5-phenylthiophene-2-carboxamide] | – | 1060 nM | – | 1±5% | – | – | – | – | – | – | good solubility |
| CCCN(CCCNC(=O)c1ccc(-c2ccccc2)s1)Cc1ccccc1 [Compound 26, N-(3-(benzyl(propyl)amino)propyl)-5-phenylthiophene-2-carboxamide] | – | – | – | 76±7% | – | – | – | – | – | – | good solubility |
| CCN(CCCNC(=O)c1ccc(-c2ccccc2)s1)Cc1ccccc1 [Compound 23, N-(3-(benzyl(ethyl)amino)propyl)-5-phenylthiophene-2-carboxamide] | highest potency for platelet aggregation inhibition | 111 nM | – | – | 30 µg/mL | 75 ± 1 µM | tolerated well | – | – | – | – |
